tested on: human plasma; assay: One-bead-one-compound cXXXXXc peptide library screening, biotinylated serum (first mixture) then plasma (target mixture), BCIP staining and (B-A)/A image analysis; type: binding; conditions: 4 μg biotinylated serum, then 4 μg biotinylated plasma, 1 hour each at 23° C., sequence by automated peptide sequencing
Source text: General Method. The two mixtures of molecules to be compared were human plasma, referred to as “the target mixture,” and human serum, referred to as “the first mixture.” Both the plasma and serum were biotinylated with EZ-Link™ Sulfo-NHS-LC-Biotin from Pierce. Bead libraries were generated on TenteGel from Rapp Polymere. Amino acids used in bead library synthesis were from Synpep. Bead library screenings were done in disposable polypropylene columns from Perkin Elmer Life Sciences. All buffer reagents were from Sigma unless otherwise noted. PBS, TBS and BCIP buffers were as described in Lam, Kit S. and Michal Lebl, “Synthesis of a one-bead one-compound combinatorial peptide library,” Methods in Molecular Biology, vol. 87, Combinatorial Peptide Library Protocols. Edited by Shmuel Cabilly (Humana Press: 1997), 1-6. Bead staining utilized BCIP from Bio Synth AG which was hydrolyzed with streptavidin-alkaline phosphatase conjugate from Zymed. Bead immobilization was done in SeaPlaque agarose from Bio Wittaker Molecular Applications in Omni tray lids from Nunc/Nalgene. Scanned images were generated on a flatbed transparency scanner from Umax. Computer imaging was accomplished with Adobe Photoshop and compiler software was from Metrowerks. Amino acid sequencing was done on an Applied Biosystems Procise 494 Protein Sequencer.
Library Synthesis. “One-bead-one-compound” cXXXXXc peptide libraries were synthesized essentially as described (Lam and Lebl, Methods in Molecular Biology, vol. 87) using the “split synthesis approach,” where “X” denotes any L-amino acid except for cysteine, arginine, and lysine, and “c” is D-cysteine. TenteGel was used as a solid support and standard Fmoc chemistry was used for the solid phase peptide synthesis reactions. (Stewart and Young 1984. Solid-Phase Peptide Synthesis. Pierce Chemical Co. Atherton, E. and R. C. Sheppard. 1989. Solid Phase Peptide Synthesis: A Practical Approach. Practical Approach Series.)
Extract Preparation and Biotinlation. Human plasma and serum were prepared by the collection of human blood into stoppered vacuum tubes in the presence of Na-heparin as an anti-coagulant for plasma and in the absence of Na-heparin for serum. Blood was allowed to clot in the tubes for 25 minutes after which the top layer of […] was collected. Na-heparin was added to the serum to equalize the amount of Na-heparin in plasma and serum after which both samples were centrifuged at 1000 rpm for 20 minutes in a Sorvall SS34 centrifuge rotor. After centrifugation, samples were aliquoted, dialyzed against PBS for four hours at 4° C., quantitated and stored frozen at −80° C. The concentrations of the plasma and serum protein extracts after dialysis were 66.5 and 57.8 mg/ml, respectively.
Plasma and serum were tagged using biotinylation where biotin was the label and streptavidin alkaline phosphatase conjugate was the label binder. Biotinylation was performed according to the manufacturer's instructions. About 0.2 mg of protein was incubated in PBS with a 20-fold molar excess of sulfo-NHS-LC-biotin for 30 minutes at 23° C. The reaction was quenched by the addition of Tris-HCl pH 7.9 to 100 mM. For calculations of molarity, the average molecular weight of the proteins in the plasma and serum solutions was assumed to be 50 kD.
Library Screening. Four experiments were conducted. On average, 250,000 “one-bead-one-compound” beads were screened in each experiment. All bead reactions were performed in 1.5 ml polypropylene disposable micro-columns with inside dimensions of 37 mm×6 mm. Unless otherwise noted, all bead reactions were incubated on a Lab quake bench top rotator (Barnstead/Thermolyne) for 1 hour at 23° C. Bead libraries were stored in PBS with 0.05% sodium-azide. All incubation buffers and components were thoroughly mixed before addition to the column containing the bead library. […]

Substance	ligands identified on true positive beads (beads that bound molecules essentially unique to the plasma)
cAHVWHc	identified
cFHNNHc	identified
cGIHYLc	identified
cHGHTIc	identified
cHTLHQc	identified
cHVHPWc	identified
cHYHVSc	identified
cHYQTGc	identified
cMHGHFc	identified
cNLTHIc	identified
cPFHHSc	identified
cYGHFSc	identified
